Measured values published in patent publication US20110189213A1, “MYBL2 EPITOPE PEPTIDES AND VACCINES CONTAINING THE SAME” (Oncotherapy Science, Inc., priority 2008, published 2011).
“Also recorded” adds a separate entry of the source.

Columns and labels:
Assay type in all cases: cell-based, human
[1] = test system: peptide-pulsed A24LCL cells; assay: IFN-gamma ELISPOT assay on CTLs induced with MYBL2 peptides; settings: against peptide-pulsed target cells vs control without peptide, day 21 after 3rd stimulation
Excerpt: (§1) Monocyte-derived dendritic cells (DCs) were used as antigen-presenting cells (APCs) to induce cytotoxic T lymphocyte (CTL) responses against peptides presented on human leukocyte antigen (HLA). DCs were generated in vitro as described elsewhere (Nakahara S et al., Cancer Res 2003 Jul. 15, 63(14): 4112-8). Specifically, peripheral blood mononuclear cells (PBMCs) isolated from a normal volunteer (HLA-A*2402 positive) by Ficoll-Plaque (Pharmacia) solution were separated by adherence to a plastic tissue culture dish (Becton Dickinson) so as to enrich them as the monocyte fraction. The monocyte-enriched population was cultured in the presence of 1000 U/ml of granulocyte-macrophage colony-stimulating factor (GM-CSF) (R&D System) and 1000 U/ml of interleukin (IL)-4 (R&D System) in AIM-V Medium (Invitrogen) containing 2% heat-inactivated autologous serum (AS). After 7 days of culture, the cytokine-induced DCs were pulsed with 20 mcg/ml of each of the synthesized peptides in the presence of 3 mcg/ml of beta2-microglobulin for 3 hr at 37 degrees C. in AIM-V Medium. The generated cells appeared to express DC-associated molecules, such as CD80, CD83, CD86 and HLA class II, on their cell surfaces (data not shown). These peptide-pulsed DCs were then inactivated by Mitomycin C (MMC) (30 mcg/ml for 30 min) and mixed at a 1:20 ratio with autologous CD8+ T cells, obtained by positive selection with CD8 Positive Isolation Kit (Dynal). These cultures were set up in 48-well plates (Corning); each well contained 1.5×10^4 peptide-pulsed DCs, 3×10^5 CD8+ T cells and 10 ng/ml of IL-7 (R&D System) in 0.5 ml of AIM-V/2% AS medium. Three days later, these cultures were supplemented with IL-2 (CHIRON) to a final concentration of 20 IU/ml. On day 7 and 14, the T cells were further stimulated with the autologous peptide-pulsed DCs. The DCs were prepared each time by the same way described above. CTL was tested against peptide-pulsed A24LCL cells after the 3rd round of peptide stimulation on day 21 (Tanaka H et al., Br J Cancer 2001 Jan. 5, 84(1): 94-9; Umano Y et al., Br J Cancer 2001 Apr. 20, 84(8): 1052-7; Uchida N et al., Clin Cancer Res 2004 Dec. 15, 10(24): 8577-86; Suda T et al., Cancer Sci 2006 May, 97(5): 411-9; Watanabe T et al., Cancer Sci 2005 August, 96(8): 498-506).
(§2) To examine specific CTL activity, interferon (IFN)-gamma enzyme-linked immunospot (ELISPOT) assay and IFN-gamma enzyme-linked immunosorbent assay (ELISA) were performed. Specifically, peptide-pulsed A24LCL (1×10^4/well) was prepared as stimulator cells. Cultured cells in 48 wells were used as responder cells. IFN-gamma ELISPOT assay and IFN-gamma ELISA assay were performed under manufacture procedure.

[2] = test system: peptide-pulsed A24LCL cells; assay: IFN-gamma ELISA assay on established CTL lines; settings: target cells pulsed with corresponding peptide vs target cells without peptide pulse
Procedure: CTLs were expanded in culture using the method similar to the one described by Riddell et al. (Walter E A et al., N Engl J Med 1995 Oct. 19, 333(16): 1038-44; Riddell S R et al., Nat Med 1996 February, 2(2): 216-23). A total of 5×10^4 CTLs were suspended in 25 ml of AIM-V/5% AS medium with 2 kinds of human B-lymphoblastoid cell lines, inactivated by MMC, in the presence of 40 ng/ml of anti-CD3 monoclonal antibody (Pharmingen). One day after initiating the cultures, 120 IU/ml of IL-2 were added to the cultures. The cultures were fed with fresh AIM-V/5% AS medium containing 30 IU/ml of IL-2 on days 5, 8 and 11 (Tanaka H et al., Br J Cancer 2001 Jan. 5, 84(1): 94-9; Umano Y et al., Br J Cancer 2001 Apr. 20, 84(8): 1052-7; Uchida N et al., Clin Cancer Res 2004 Dec. 15, 10(24): 8577-86; Suda T et al., Cancer Sci 2006 May, 97(5): 411-9; Watanabe T et al., Cancer Sci 2005 August, 96(8): 498-506).
as §2

[3] = test system: CD8+ T cells stimulated with peptide-pulsed DCs (HLA-A*2402 positive); assay: In vitro CTL induction and establishment of CTL lines; settings: cells of positive wells expanded
Excerpt: as §1, with “CTL was tested against peptide-pulsed A24LCL cells after the 3rd round of peptide stimulation on day 21 (Tanaka H et al., Br J Cancer 2001 Jan. 5, 84(1): 94-9; Umano Y et al., Br J Cancer 2001 Apr. 20, 84(8): 1052-7; Uchida N et al., Clin Cancer Res 2004 Dec. 15, 10(24): 8577-86; Suda T et al., Cancer Sci 2006 May, 97(5): 411-9; Watanabe T et al., Cancer Sci 2005 August, 96(8): 498-506).” left out

Sequence | IFN-gamma production of peptide-stimulated CTLs (ELISPOT) ([1]; listed as MYBL2-A24-9-370) | IFN-gamma production of established CTL lines (ELISA) [2] | IFN-gamma production of established CTL lines (ELISA) ([2]; listed as MYBL2-A24-9-370) | Establishment of CTL lines [3] | IFN-gamma production of peptide-stimulated CTLs (ELISPOT) ([1]; listed as MYBL2-A24-10-197) | IFN-gamma production of established CTL lines (ELISA) ([2]; listed as MYBL2-A24-10-197) | IFN-gamma production of peptide-stimulated CTLs (ELISPOT) ([1]; listed as MYBL2-A24-9-100) | IFN-gamma production of established CTL lines (ELISA) ([2]; listed as MYBL2-A24-9-100) | IFN-gamma production of peptide-stimulated CTLs (ELISPOT) ([1]; listed as MYBL2-A24-10-48) | IFN-gamma production of established CTL lines (ELISA) ([2]; listed as MYBL2-A24-10-48)
EYRLDGHTI [SEQ ID NO: 2, 9-mer peptide derived from MYBL2, start position 370] | potent IFN-gamma production as compared to the control wells; also recorded: potent IFN-gamma production as compared with the control | potent IFN-gamma production against the target cells pulsed with corresponding peptide | potent IFN-gamma production as compared with the control | expanded and established CTL lines |  |  |  |  |  | 
KPPVYLLLEL [SEQ ID NO: 13, 10-mer peptide derived from MYBL2, start position 197] |  | potent IFN-gamma production against the target cells pulsed with corresponding peptide |  | expanded and established CTL lines | potent IFN-gamma production as compared to the control wells; also recorded: potent IFN-gamma production as compared with the control | potent IFN-gamma production as compared with the control |  |  |  | 
KYGTKQWTL [SEQ ID NO: 1, 9-mer peptide derived from MYBL2, start position 100] |  | potent IFN-gamma production against the target cells pulsed with corresponding peptide |  | expanded and established CTL lines |  |  | potent IFN-gamma production as compared to the control wells; also recorded: potent IFN-gamma production as compared with the control | potent IFN-gamma production as compared with the control |  | 
QFGQQDWKFL [SEQ ID NO: 12, 10-mer peptide derived from MYBL2, start position 48] |  |  |  |  |  |  |  |  | typical negative data of CTL response; also recorded: no specific IFN-gamma production was detected | typical negative data of CTL response; also recorded: no specific IFN-gamma production against peptide-pulsed target cells was observed
